Experimental data as given in US20240246913A1, “2-CARBOXYL-INDOLE INHIBITORS OF METALLO-BETA-LACTAMASES” (Oxford University Innovation Limited, priority 2021, published 2024).

Tests used:
VIM-2 = VIM-2 (Escherichia coli, UniProt Q5U7L7); assay: MBL inhibition, FC-5 fluorescence assay, VIM-2; format: biochemical; conditions: FC-5 cephalosporin substrate, ranges of obtained pIC50, read-out: pIC50 VIM-2 (converted)
Outline: (§1)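 Dose-response fits (log inhibitor vs normalized response, variable slope) used initial reaction rates, each concentration in 4 replicates within the plate. Rates came from fluorophore release at ex 380/em 460 nm as the MBL hydrolyzed FC-5.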

VIM-1 = VIM-1 (Pseudomonas aeruginosa, UniProt A0A0F7KYQ8); assay: MBL inhibition, FC-5 fluorescence assay, VIM-1; format: biochemical; conditions: FC-5 cephalosporin substrate, ranges of obtained pIC50, read-out: pIC50 VIM-1 (converted)
Outline: as §1

NDM-1 = NDM-1 (Klebsiella pneumoniae, UniProt C7C422); assay: MBL inhibition, FC-5 fluorescence assay, NDM-1; format: biochemical; conditions: FC-5 cephalosporin substrate, fluorescence; ranges of obtained pIC50; read-out: pIC50 NDM-1 (converted)
Chain of NDM-1 (C7C422 29-270, looked up, species assumed): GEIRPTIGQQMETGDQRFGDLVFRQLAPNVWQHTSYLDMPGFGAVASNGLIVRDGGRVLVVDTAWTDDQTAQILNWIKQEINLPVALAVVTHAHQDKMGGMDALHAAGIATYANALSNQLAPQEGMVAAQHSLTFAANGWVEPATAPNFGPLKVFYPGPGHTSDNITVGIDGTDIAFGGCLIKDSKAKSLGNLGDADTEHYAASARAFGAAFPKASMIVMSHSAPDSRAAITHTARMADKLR
Outline: as §1

[1] = Plasma protein binding, equilibrium dialysis, human plasma; format: in vitro ADME; conditions: pH 7.4, equilibrium dialysis (RED) 4 hours at 37° C., read-out: Plasma protein binding, fu, Human
Protocol: (§2) The fraction of unbound compound (fu) in plasma from human or other animal species was determined by equilibrium dialysis at 37° C. for 4 hours using the Rapid Equilibrium Dialysis (RED) device (ThermoFisher Scientific). The test compound at a concentration of 10 μM was added to plasma and dialyzed against isotonic phosphate buffer (67 mM, pH 7.4) over 4 hours at 37° C. After dialysis, compound concentrations in buffer and plasma were quantified by LC-MS/MS. In parallel the stability of the compound in plasma was determined by incubating drug-spiked plasma (10 μM) at 37° C. for 4 hours, meanwhile the control plasma sample was kept in the freezer. The concentration of the compound in both samples was quantified by LC-MS/MS (Waters Corp, Milford, MA, USA).

[2] = Plasma protein binding, equilibrium dialysis, mouse plasma; format: in vitro ADME; conditions: pH 7.4, equilibrium dialysis (RED) 4 hours at 37° C., read-out: Plasma protein binding, fu, Mouse
Protocol: as §2

IMP-1 = IMP-1 (Serratia marcescens, UniProt P52699); assay: MBL inhibition, FC-5 fluorescence assay, IMP-1; format: biochemical; conditions: FC-5 cephalosporin substrate, fluorescence; ranges of obtained pIC50; read-out: pIC50 IMP-1 (converted)
Chain of IMP-1 (P52699 19-246, looked up, species assumed): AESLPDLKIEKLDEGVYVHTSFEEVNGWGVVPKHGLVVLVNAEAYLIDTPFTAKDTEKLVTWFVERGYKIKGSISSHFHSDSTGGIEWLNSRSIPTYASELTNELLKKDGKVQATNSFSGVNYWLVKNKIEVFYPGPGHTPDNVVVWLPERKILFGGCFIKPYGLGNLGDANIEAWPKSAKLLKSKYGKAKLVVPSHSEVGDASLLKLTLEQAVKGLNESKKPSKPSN
Outline: as §1

Escherichia coli NDM-7 = assay: Antibiotic susceptibility testing (MIC), EC NDM-7; format: cell-based; conditions: agar or broth dilution (CLSI/EUCAST)
Protocol: (§3) Antibiotic susceptibility testing was performed using the agar or broth dilution method, in line with the Clinical and Laboratory Standards Institute (CLSI) and European Committee on Antimicrobial Susceptibility Testing (EUCAST) requirements.

Escherichia coli NDM-1 = assay: Antibiotic susceptibility testing (MIC), EC NDM-1; format: cell-based; conditions: agar or broth dilution (CLSI/EUCAST)
Protocol: as §3

[3] = system: Acinetobacter baumannii NDM-1; assay: Antibiotic susceptibility testing (MIC), AB NDM-1; format: cell-based; conditions: agar or broth dilution (CLSI/EUCAST)
Protocol: as §3

Row | Compound | IC50 (VIM-2) | IC50 (VIM-1) | IC50 (NDM-1) | fraction unbound at 4 h, 10 μM [1] | fraction unbound at 4 h, 10 μM [2] | IC50 (IMP-1) | MIC values EC NDM-7 (Escherichia coli NDM-7) | MIC values EC NDM-1 (Escherichia coli NDM-1) | MIC values AB NDM-1 [3]
1 | CC(NS(C)(=O)=O)c1cccc2c(-c3cc(Cl)cc(Cl)c3)c(C(=O)O)[nH]c12 (stereo not shown) [IC-2, 3-(3,5-Dichlorophenyl)-7-(1-(methylsulfonamido)ethyl)-1H-indole-2-carboxylic acid] | > 10 nM | > 10 nM | > 10 nM | < 0.005 | < 0.005 | > 10 nM |  |  | 
2 | CC(c1cccc2c(-c3ccc(CS(C)(=O)=O)c(F)c3)c(C(=O)O)[nH]c12)N1C(=O)CN(CCCN)C1=O (stereo not shown) [IC-13, 7-[1-[3-(3-Aminopropyl)-2,5-dioxo-imidazolidin-1-yl]ethyl]-3-[3-fluoro-4-(methylsulfonylmethyl)phenyl]-1H-indole-2-carboxylic acid] | > 10 nM | 1 to 10 nM | < 0.1 nM | 0.05 to 0.25 | 0.005 to 0.05 | > 10 nM |  |  | 
3 | C[C@@H](c1cccc2c(-c3ccc(=O)[nH]c3)c(C(=O)O)[nH]c12)N1C[C@]2(C[C@@H](CN)C2)OC1=O [IC-15, 7-((S)-1-((2S,4r)-2-(aminomethyl)-6-oxo-5-oxa-7-azaspiro[3.4]octan-7-yl)ethyl)-3-(6-oxo-1,6-dihydropyridin-3-yl)-1H-indole-2-carboxylic acid] |  |  |  | 0.05 to 0.25 | 0.005 to 0.05 |  | A (A = MIC values ≤ 1) | B (B MIC values 2 ÷ 8) | C (C = MIC values > 8)
4 | C[C@@H](c1cccc2c(-c3ccc(CS(C)(=N)=O)c(F)c3)c(C(=O)O)[nH]c12)N1C[C@]2(C[C@@H](CN)C2)OC1=O (stereo partly drawn) [IC-19, 7-((1S)-1-(2-(aminomethyl)-6-oxo-5-oxa-7-azaspiro[3.4]octan-7-yl)ethyl)-3-(3-fluoro-4-((S-methylsulfonimidoyl)methyl)phenyl)-1H-indole-2-carboxylic acid] | 0.1 to 1 nM | 0.1 to 1 nM | < 0.1 nM | > 0.25 | 0.05 to 0.25 | > 10 nM | A (A = MIC values ≤ 1) | B (B MIC values 2 ÷ 8) | B (B MIC values 2 ÷ 8)
5 | C[C@@H](c1cccc2c(-c3c(F)cc(NS(C)(=O)=O)cc3F)c(C(=O)O)[nH]c12)N1C[C@]2(C[C@@H](CN)C2)OC1=O [IC-21, 7-((S)-1-((2S,4r)-2-(aminomethyl)-6-oxo-5-oxa-7-azaspiro[3.4]octan-7-yl)ethyl)-3-(2,6-difluoro-4-(methylsulfonamido)phenyl)-1H-indole-2-carboxylic acid] | 1 to 10 nM | > 10 nM | 1 to 10 nM | 0.05 to 0.25 | 0.005 to 0.05 | > 10 nM | B (B MIC values 2 ÷ 8) | C (C = MIC values > 8) | C (C = MIC values > 8)
6 | C[C@@H](c1cccc2c(-c3ccc4c(c3)CNC4=O)c(C(=O)O)[nH]c12)N1C[C@]2(C[C@@H](CN)C2)OC1=O [IC-22, 7-((S)-1-((2R,4s)-2-(aminomethyl)-6-oxo-5-oxa-7-azaspiro[3.4]octan-7-yl)ethyl)-3-(1-oxoisoindolin-5-yl)-1H-indole-2-carboxylic acid] | < 0.1 nM | 1 to 10 nM | 0.1 to 1 nM | 0.05 to 0.25 | 0.005 to 0.05 | > 10 nM | A (A = MIC values ≤ 1) | A (A = MIC values ≤ 1) | B (B MIC values 2 ÷ 8)
7 | C[C@@H](c1cccc2c(-c3ccc(NS(=O)(=O)C4COC4)c(F)c3)c(C(=O)O)[nH]c12)N1C[C@]2(C[C@@H](CN)C2)OC1=O [IC-24, 7-((S)-1-((2S,4r)-2-(aminomethyl)-6-oxo-5-oxa-7-azaspiro[3.4]octan-7-yl)ethyl)-3-(3-fluoro-4-(oxetane-3-sulfonamido)phenyl)-1H-indole-2-carboxylic acid] | 0.1 to 1 nM | 1 to 10 nM | < 0.1 nM | 0.05 to 0.25 | 0.05 to 0.25 | > 10 nM | A (A = MIC values ≤ 1) | A (A = MIC values ≤ 1) | B (B MIC values 2 ÷ 8)
8 | CNc1ccc(-c2c(C(=O)O)[nH]c3c([C@H](C)N4C[C@]5(C[C@@H](CN)C5)OC4=O)cccc23)cn1 [IC-36, 3-[6-(methylamino)pyridin-3-yl]-7-[(1S)-1-[(2r,4r)-2-(aminomethyl)-6-oxo-5-oxa-7-azaspiro[3.4]octan-7-yl]ethyl]-1H-indole-2-carboxylic acid] | > 10 nM | > 10 nM | > 10 nM | 0.05 to 0.25 |  | > 10 nM | A (A = MIC values ≤ 1) | A (A = MIC values ≤ 1) | B (B MIC values 2 ÷ 8)
9 | C[C@@H](c1cccc2c(-c3ccc(N)nc3)c(C(=O)O)[nH]c12)N1C[C@]2(C[C@@H](CN)C2)OC1=O [IC-37, 3-(6-aminopyridin-3-yl)-7-[(1S)-1-[(2r,4r)-2-(aminomethyl)-6-oxo-5-oxa-7-azaspiro[3.4]octan-7-yl]ethyl]-1H-indole-2-carboxylic acid] | 1 to 10 nM | > 10 nM | 1 to 10 nM | 0.05 to 0.25 |  | > 10 nM | A (A = MIC values ≤ 1) | A (A = MIC values ≤ 1) | B (B MIC values 2 ÷ 8)
10 | C[C@@H](c1cccc2c(-c3ccncc3)c(C(=O)O)[nH]c12)N1C[C@]2(C[C@@H](CN)C2)OC1=O [IC-38, 3-(pyridin-4-yl)-7-[(1S)-1-[(2r,4r)-2-(aminomethyl)-6-oxo-5-oxa-7-azaspiro[3.4]octan-7-yl]ethyl]-1H-indole-2-carboxylic acid] | 0.1 to 1 nM | 1 to 10 nM | 0.1 to 1 nM | 0.005 to 0.05 |  | > 10 nM | A (A = MIC values ≤ 1) | A (A = MIC values ≤ 1) | B (B MIC values 2 ÷ 8)
11 | C[C@@H](c1cccc2c(-c3cccnc3)c(C(=O)O)[nH]c12)N1C[C@]2(C[C@@H](CN)C2)OC1=O [IC-39, 3-(pyridin-3-yl)-7-[(1S)-1-[(2r,4r)-2-(aminomethyl)-6-oxo-5-oxa-7-azaspiro[3.4]octan-7-yl]ethyl]-1H-indole-2-carboxylic acid] | 1 to 10 nM | 0.1 to 1 nM | 0.1 to 1 nM | 0.005 to 0.05 |  | > 10 nM | A (A = MIC values ≤ 1) | A (A = MIC values ≤ 1) | B (B MIC values 2 ÷ 8)
12 | C[C@@H](c1cccc2c(-c3c(F)cc(NS(C)(=O)=O)cc3F)c(C(=O)O)[nH]c12)n1cc(CN2CC(N)C2)oc1=O [IC-51, 7-[(1S)-1-{5-[(3-Aminoazetidin-1-yl)methyl]-2-oxo-2,3-dihydro-1,3-oxazol-3-yl}ethyl]-3-(2,6-difluoro-4-methanesulfonamidophenyl)-1H-indole-2-carboxylic acid] | 1 to 10 nM | > 10 nM | 1 to 10 nM | 0.05 to 0.25 | 0.005 to 0.05 | > 10 nM | B (B MIC values 2 ÷ 8) | C (C = MIC values > 8) | C (C = MIC values > 8)
13 | CC(OCC1CC[N+](C)(C)CC1)c1cccc2c(-c3ccc(CS(C)(=O)=O)c(F)c3)c(C(=O)[O-])[nH]c12 (stereo not shown) [IC-90, 7-(1-((1,1-Dimethylpiperidin-1-ium-4-yl)methoxy)ethyl)-3-(3-fluoro-4-((methylsulfonyl)methyl)phenyl)-1H-indole-2-carboxylate] | 1 to 10 nM | 1 to 10 nM | 1 to 10 nM | > 0.25 | 0.05 to 0.25 | > 10 nM |  |  | 
